US20250170082A1, “HPDL INHIBITORS AND USES THEREOF” (NEW YORK UNIVERSITY, priority 2022, published 2025)
“Also recorded” adds a separate entry of the source. Blank lines part the entries; values can stand above or below the molecule they belong to.

Key:
[1] = test system: MIAPACA2 and PATU-8902 cells; assay: 3D growth assay (CyQUANT) in MIAPACA2 and PATU-8902 cells; assay type: cell-based; conditions: 3 days
Experimental: (§1) 2,500 cells were seeded into a low-attachment 96-well plate containing DMEM+10% dialysed FBS and 3% Matrigel. […] To measure 3D growth with the CyQUANT Cell Proliferation Assay kit, plates were frozen at −80° C., thawed at room temperature, and equal volumes of 2× CyQUANT reagent+lysis buffer was added to the wells. As a control, wells containing medium and no cells were used as blanks. CyQUANT measurements were performed as described in the manufacturer's instructions.
as §1, with “2×CyQUANT” for “2× CyQUANT”, “Wells” for “As a control, wells”, “blanks.” for “blanks. CyQUANT measurements were performed as described in the manufacturer's instructions.”

C57BL/6 pups = assay: Pup survival after daily oral gavage; assay type: in vivo
cells = assay: Cellular uptake of 4-HMA and incorporation into CoQ10; assay type: cell-based
[2] = test system: MIAPACA2 and PATU8902 xenografts; assay: PDAC pancreas orthotopic xenografts in athymic nude mice; assay type: in vivo
Experimental: Pancreas orthotopic xenografts were established as follows. In brief, 6-week-old female immunocompromised athymic nude mice (CrTac:NCr-Foxnlnu) were orthotopically injected with tumor cells into the pancreas. Mice were anaesthetized with ketamine (120 mg kg−1) and xylazine (10 mg kg−1) before surgery. MIAPACA2 or PATU-8902 ([…]) were suspended in 20 μl of 50% growth factor-reduced Matrigel (BD Science), and injected into the pancreas. Mice were treated with buprenorphine every 12 h after surgery for 48 h. […] Both compounds were dissolved into mice water every day to avoid degradation. Mice were sacrificed when tumor development led to significant deterioration of their condition.

[3] = target: T1, human His-tagged HPDL (4-hydroxyphenylpyruvate dioxygenase-like), recombinant, from expiSF9 insect cells (Homo sapiens, UniProt Q96IR7); assay: Inhibition of HPDL activity: His-tagged HPDL incubated with HPPA at various inhibitor concentrations, 4HMA production followed by GC-MS; assay type: biochemical
T1 construct: His tag; made in house; host or cells: expiSF9 insect cells (virus infection)
T1 sequence (Q96IR7 1-371): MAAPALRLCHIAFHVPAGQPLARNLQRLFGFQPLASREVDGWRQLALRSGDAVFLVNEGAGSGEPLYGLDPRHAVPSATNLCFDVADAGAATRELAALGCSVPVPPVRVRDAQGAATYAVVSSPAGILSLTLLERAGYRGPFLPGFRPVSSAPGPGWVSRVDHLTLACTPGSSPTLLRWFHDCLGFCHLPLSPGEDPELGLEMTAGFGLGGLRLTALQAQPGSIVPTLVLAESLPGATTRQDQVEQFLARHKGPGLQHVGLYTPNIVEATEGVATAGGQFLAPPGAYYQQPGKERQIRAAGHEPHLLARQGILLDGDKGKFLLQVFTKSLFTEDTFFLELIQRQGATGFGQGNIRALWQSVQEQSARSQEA
Description: The four curves in Panel (A) represent dose-response curves for, from left to right, ibuprofen, dopamine, montelukast, and methyldopa, respectively.
A culture of expiSF9 cells (5×10^6 viable cells/mL and ≥90% viability) were infected with high-titer virus (human His-tagged HPDL).

[4] = test system: MIAPACA2 expressing control or HPDL sgRNA; assay: 3D growth assay in MIAPACA2 expressing control or HPDL sgRNA, with or without coHPDL; assay type: cell-based; conditions: ibuprofen 100 uM added daily, 3 days
Experimental: This experiment evaluates if HPDL inhibition in cells is responsible for the decrease of cell growth in 3D. […] 2,500 cells were seeded into a low-attachment 96-well plate containing DMEM+10% dialysed FBS and 3% Matrigel. […] To measure 3D growth with the CyQUANT Cell Proliferation Assay kit, plates were frozen at −80° C., thawed at room temperature, and equal volumes of 2× CyQUANT reagent+lysis buffer was added to the wells. Wells containing medium and no cells were used as blanks.

His-tagged HPDL = target: T2, His-tagged HPDL (Homo sapiens, UniProt Q96IR7); conditions: for compound amount at 50% activity level (rank among the four dose-response curves): FIG. 4(A) dose-response curves
T2 sequence (Q96IR7 1-371): T1 sequence (Q96IR7 1-371)

MIAPACA2 cells = assay: 3D growth assay (CyQUANT) in MIAPACA2 cells, ibuprofen vs aspirin; assay type: cell-based; conditions: 100 uM added daily, 3 days
Experimental: This experiment evaluates if COX inhibition is responsible for the decrease of cell growth in 3D. The ability of aspirin, another COX inhibitor, to affect cell growth of HPDL-dependent cell lines in 3D was evaluated. 2,500 cells were seeded into a low-attachment 96-well plate containing DMEM+10% dialysed FBS and 3% Matrigel. […] To measure 3D growth with the CyQUANT Cell Proliferation Assay kit, plates were frozen at −80° C., thawed at room temperature, and equal volumes of 2× CyQUANT reagent+lysis buffer was added to the wells. Wells containing medium and no cells were used as blanks.

HPDL = target: T3, HPDL (Homo sapiens, UniProt Q96IR7); assay: Fluorescence based thermal shift assay (FTS) on purified HPDL; assay type: binding; conditions: 10 μM compound, 1 μM HPDL
T3 construct: His tag; made in house; host or cells: expiSF9 insect cells (inferred: the only HPDL preparation described)
T3 sequence (Q96IR7 1-371): T1 sequence (Q96IR7 1-371)
Experimental: This experiment evaluates an FDA approved library of small molecules by thermal shift in order to identify binders of HPDL. Fluorescence based thermal shift assay (FTS) was conducted on Bio-Rad real time PCR detection system. A total of 20 μL/well solution was prepared containing 1 μM HPDL, 2× fluorescent dye (Applied Biosystems, Life Technologies) and small molecules at […] concentration in buffer (50 mM HEPES pH 7.5 and 20 μM FeSO4). The plate was heated at 1% of ramp rate (−1.5° C./min) from 25 to 95° C., and Rox was selected as reporter for detection of fluorescence intensity. The melting temperature was recorded for every compound and compared to the reference HPDL melting temperature.
This experiment evaluates if COX inhibition is responsible for the decrease of cell growth in 3D. The ability of aspirin, another COX inhibitor, to bind HPDL was evaluated using thermal shift assay. Fluorescence based thermal shift assay (FTS) was conducted on Bio-Rad real time PCR detection system. […] The plate was heated at 1% of ramp rate (˜1.5° C./min) from 25 to 95° C., and Rox was selected as reporter for detection of fluorescence intensity. The melting temperature was recorded for every compound and compared to the reference HPDL melting temperature.

SMILES: O=C(O)C(O)c1ccc(O)cc1 (stereo not drawn) [4HMA, 4-hydroxymandelate]
rescue of ibuprofen-induced decrease of 3D cell growth ([1]; ibuprofen 100 uM and 4HMA 1 mM added daily): rescues ibuprofen-induced decreases cell growth in 3D
rescue of ibuprofen-induced lethality (C57BL/6 pups; 4HMA 10 mg/kg with ibuprofen 200 mg/kg daily oral gavage): rescues ibuprofen-induced lethality in pups
uptake by cells and incorporation into CoQ10 (cells): readily taken up by cells and incorporated into CoQ10
rescue of ibuprofen-induced decrease of xenograft growth ([2]; 4HMA 10 mg/kg with ibuprofen 100 mg/kg in drinking water): can rescue this decrease

SMILES: CC(C)(O)c1ccccc1CC[C@@H](SCC1(CC(=O)O)CC1)c1cccc(/C=C/c2ccc3ccc(Cl)cc3n2)c1 [D00005 row 1, montelukast]
IC50 [3]: > 100 µM

SMILES: CC(C)Cc1ccc(C(C)C(=O)O)cc1 (stereo not drawn) [ibuprofen]
3D cell growth ([1]; ibuprofen 100 uM added daily): selectively decreases cell growth of HPDL-dependent cell lines in 3D
sensitivity of 3D growth to ibuprofen on HPDL deletion [4]: HPDL deletion reduces sensitivity to ibuprofen treatment in 3D
compound amount at 50% activity level (rank among the four dose-response curves) (His-tagged HPDL): least
pup development and survival (C57BL/6 pups; ibuprofen 200 mg/kg daily oral gavage, started at 3, 5 and 10 days): affects the development of pups; also recorded: ibuprofen-induced lethality in pups
3D cell growth (MIAPACA2 cells): affects cell growth of HPDL-dependent cell lines in 3D
orthotopic pancreatic tumor growth (tumor weight) ([2]; ibuprofen 100 mg/kg in drinking water): affects the growth of HPDL-dependent PDAC orthotopic xenografts

SMILES: CC(C)Cc1ccc(C(C)C(=O)O)cc1 (stereo not drawn) [D00005 row 4, ibuprofen]
IC50 [3]: 16.6 µM

Continued, in another order:

IC50 [3]: > 100 µM
SMILES: C[C@](N)(Cc1ccc(O)c(O)c1)C(=O)O [D00005 row 3, methyldopa]

inhibition of HPDL activity (His-tagged HPDL; 12 ng/μL HPDL, 10 μM HPPA, 1 h at 37° C., various inhibitor concentrations): inhibit the dioxygenase HPDL
compound amount at 50% activity level (rank among the four dose-response curves) (His-tagged HPDL): second least
SMILES: NCCc1ccc(O)c(O)c1 [dopamine]

IC50 [3]: 41.3 µM
SMILES: NCCc1ccc(O)c(O)c1 [D00005 row 2, dopamine]

HPDL binding by thermal shift (HPDL): does not act HPDL binder
SMILES: CC(=O)Oc1ccccc1C(=O)O [aspirin]
3D cell growth (MIAPACA2 cells): does not affect cell growth of HPDL-dependent cell lines
